Reference: patent publication US6359144B1, “Combinatorial libraries of bicyclic guanidine derivatives and compounds therein” (Lion Bioscience AG, priority 1997, dated 2002)
Read-outs that look alike come from different tables or passages of the source.

Tests used:
σ receptor = target: T1, σ receptor (Rattus norvegicus, UniProt Q9R0C9); assay: σ receptor radio-receptor binding assay
T1 construct: can be performed with particulate membranes prepared using a modification of the method described in Pasternak et al; tissue Rockland (Gilbertsville, Pa.); host or cells: rat brain minus cerebellum, crude particulate membranes
T1 sequence (Q9R0C9 whole entry): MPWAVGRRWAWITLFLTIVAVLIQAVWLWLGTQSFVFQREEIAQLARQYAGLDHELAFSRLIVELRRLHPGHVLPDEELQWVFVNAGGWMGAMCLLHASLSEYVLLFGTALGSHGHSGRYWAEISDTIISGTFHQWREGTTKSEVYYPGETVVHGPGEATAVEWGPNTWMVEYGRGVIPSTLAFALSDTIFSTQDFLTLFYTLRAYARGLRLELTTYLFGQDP
From the text: Additionally, such compounds can be tested in a σ receptor assay. Ligands for the σ receptor can be useful as antipsychotic agents, as described in Abou-Gharbia et al., Annual Reports in Medicinal Chemistry, 28:1-10 (1993).
Radio-receptor assays, such as those whose results are shown in Examples IV, V and VI, below, can be performed with particulate membranes prepared using a modification of the method described in Pasternak et al., Mol. Pharmacol. 11:340-351 (1975), which is incorporated herein by reference. Rat brains frozen in liquid nitrogen can be obtained from Rockland (Gilbertsville, Pa.). The brains are thawed, the cerebella removed and the remaining tissue weighed. Each brain is individually homogenized in 40 ml Tris-HCl buffer (50 mM, pH 7.4, 4° C.) and centrifuged (Sorvall® RC5C SA-600: Du Pont, Wilmington, Del.) (16,000 rpm) for 10 minutes. The pellets are resuspended in fresh Tris-HCl buffer and incubated at 37° C. for 40 minutes. Following incubation, the suspensions are centrifuged as before, the resulting pellets resuspended in 100 volumes of Tris buffer and the suspensions combined. Membrane suspensions are prepared and used in the same day.
Binding assays are carried out in polypropylene tubes, each tube containing 0.5 ml of membrane suspension. 8 nM of ^3H-[D-Ala^2,Me-Phe^4,Gly-ol^5]enkephalin (DAMGO) (specific activity=36 Ci/mmol, 160,000 cpm per tube; which can be obtained from Multiple Peptide Systems, San Diego, Calif., through NIDA drug distribution program 271-90-7302) and 80 μg/ml of bicyclic guanidine, individual or as a mixture and Tris-HCl buffer in a total volume of 0.65 ml. Assay tubes are incubated for 60 mins. at 25° C. The reaction is terminated by filtration through GF-B filters on a Tomtec harvester (Orange, Conn.). The filters are subsequently washed with 6 ml of Tris-HCl buffer, 4° C. Bound radioactivity is counted on a Pharmacia Biotech Betaplate Liquid Scintillation Counter (Piscataway, N.J.) and expressed in cpm. To determine inter- and intra-assay variation, standard curves in which ^3H-DAMGO is incubated in the presence of a range of concentrations of unlabeled DAMGO (0.13-3900 nM) are generally included in each plate of each assay (a 96-well format). Competitive inhibition assays are performed as above using serial dilutions of the bicyclic guanidines, individually or in mixtures.
As opposed to this μ receptor selective assay, which can be carried out using ^3H-DAMGO as radioligand, as described above, assays selective for κ receptors can be carried out using [^3H]-U69,593 (3 nM, specific activity 62 Ci/mmol) as radioligand. Assays selective for δ opiate receptors can be carried out using tritiated DSLET ([D-Ser^2, D-Leu^5]-threonine-enkephalin) as radioligand. Assays selective for the σ opiate receptor can use radiolabeled pentazocine as ligand.

κ-opioid receptor = target: T2, κ-opioid receptor (Rattus norvegicus, UniProt P34975); assay: κ-opioid receptor radio-receptor binding assay ([3H]-U69,593); settings: Table 9
T2 construct: can be performed with particulate membranes prepared using a modification of the method described in Pasternak et al; tissue Rockland (Gilbertsville, Pa.); host or cells: rat brain minus cerebellum, crude particulate membranes
T2 sequence (P34975 whole entry): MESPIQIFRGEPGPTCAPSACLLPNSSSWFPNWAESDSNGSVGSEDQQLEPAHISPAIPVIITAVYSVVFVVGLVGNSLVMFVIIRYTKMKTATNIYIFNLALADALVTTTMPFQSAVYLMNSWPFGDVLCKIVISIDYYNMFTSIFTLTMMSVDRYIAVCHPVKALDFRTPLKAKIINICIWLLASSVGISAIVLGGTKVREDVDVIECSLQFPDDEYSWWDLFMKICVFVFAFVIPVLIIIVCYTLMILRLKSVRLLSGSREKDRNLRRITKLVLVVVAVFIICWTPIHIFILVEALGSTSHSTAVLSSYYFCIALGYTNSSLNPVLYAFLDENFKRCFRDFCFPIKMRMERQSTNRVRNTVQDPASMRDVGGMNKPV

[1] = 17 additional individual compounds, Table 11
[2] = 24 individual compounds, Table 10
[3] = 24 individual compounds, read-out: IC50

| Structure (SMILES) | IC50 (σ receptor; [1]) | IC50 (σ receptor; [2]) | other results |
| --- | --- | --- | --- |
| CCCC[C@H]1CN=C2N(CC)[C@@H](Cc3ccccc3)CN21 [Nle/Phe/acetic acid] | 214 nM |  |  |
| CCN1C2=NCC(Cc3ccccc3)N2CC1CC1CCCCC1 (stereo not drawn) [Phe/Cha/acetic acid] | 52 nM |  |  |
| CC(C)(C)CCN1C2=NC[C@H](Cc3ccccc3)N2C[C@@H]1Cc1ccccc1 [Phe/Phe/(tert-butyl)acetic acid] | 112 nM |  |  |
| CC(C)CCN1C2=NC[C@H](Cc3ccccc3)N2C[C@@H]1Cc1ccccc1 [Phe/Phe/isovaleric acid] | 156 nM |  |  |
| CCN1C2=NC[C@H](Cc3ccccc3)N2C[C@@H]1Cc1ccc(OC)cc1 [Phe/Tyr(Me)/acetic acid] | 69 nM |  |  |
| CCN1C2=NC[C@H](Cc3ccccc3)N2C[C@H]1C1CCCCC1 [Phe/chg/acetic acid] | 119 nM |  |  |
| CCN1C2=NCC(Cc3ccccc3)N2CC1Cc1ccc(Cl)cc1 (stereo not drawn) [Phe/pCl-Phe/acetic acid] | 60 nM |  |  |
| CCN1C2=NC[C@H](Cc3ccccc3)N2C[C@H]1Cc1ccc(Cl)cc1 [Phe/pCl-phe/acetic acid] | 127 nM |  |  |
| CCN1C2=NC[C@H](Cc3ccccc3)N2C[C@@H]1Cc1ccc(F)cc1 [Phe/pF-Phe/acetic acid] | 215 nM |  |  |
| CCN1C2=NC[C@H](Cc3ccccc3)N2C[C@H]1Cc1ccc(F)cc1 [Phe/pF-phe/acetic acid] | 242 nM |  |  |
| CCN1C2=NC[C@H](Cc3ccccc3)N2C[C@@H]1Cc1ccc(I)cc1 [Phe/pI-Phe/acetic acid] | 65 nM |  |  |
| COc1ccc(C[C@H]2CN3C(=NC[C@H]3C3CCCCC3)N2CCCC2CCCCC2)cc1 [compound 2] |  | 585 nM |  |
| COc1ccc(C[C@H]2CN3C(=NC[C@@H]3C3CCCCC3)N2CCCC2CCCCC2)cc1 [compound 3] |  | 23 nM |  |
| COc1ccc(C[C@H]2CN3C(=NC[C@@H]3C)N2CCCC2CCCCC2)cc1 [compound 4] |  | 52 nM |  |
| CC(C)C[C@@H]1CN2C(=NC[C@@H]2C)N1CCCC1CCCCC1 [compound 7] |  | 530 nM | IC50 (κ-opioid receptor; [3]): 5440 nM |
| CC(C)C[C@@H]1CN2C(=NC[C@@H]2C2CCCCC2)N1CCCC1CCCCC1 [compound 9] |  | 13 nM | IC50 (κ-opioid receptor; [3]): 3740 nM |
| C1CCC(CCCN2C3=NC[C@@H](C4CCCCC4)N3C[C@@H]2C2CCCCC2)CC1 [compound 11] |  | 405 nM |  |
| C1CCC(CCCN2C3=NC[C@H](C4CCCCC4)N3C[C@@H]2C2CCCCC2)CC1 [compound 12] |  | 210 nM |  |
| COc1ccc(CC2CN3C(=NCC3C)N2CCC23CC4CC(CC(C4)C2)C3)cc1 (stereo not drawn) [compound 13] |  | 235 nM | IC50 (κ-opioid receptor; IC50, 24 individual compounds): 1520 nM |
| COc1ccc(CC2CN3C(=NCC3C3CCCCC3)N2CCC23CC4CC(CC(C4)C2)C3)cc1 (stereo not drawn) [compound 15] |  | 256 nM | IC50 (κ-opioid receptor; IC50, 24 individual compounds): 4920 nM |
| COc1ccc(CC2CN3C(=NCC3C)N2CCC23CC4CC(CC(C4)C2)C3)cc1 (stereo not drawn) [compound 16] |  | 1080 nM | IC50 (κ-opioid receptor; IC50, 24 individual compounds): 238 nM |
| CC(C)CC1CN2C(=NCC2C)N1CCC12CC3CC(CC(C3)C1)C2 (stereo not drawn) [compound 19] |  | 974 nM | IC50 (κ-opioid receptor; IC50, 24 individual compounds): 3640 nM |
| CC(C)CC1CN2C(=NCC2C2CCCCC2)N1CCC12CC3CC(CC(C3)C1)C2 (stereo not drawn) [compound 21] |  | 124 nM | IC50 (κ-opioid receptor; IC50, 24 individual compounds): 1210 nM |
